Test results reported in patent US9796711B2, “Substituted pyrazolo[3,4-b]pyridin-6-carboxylic acids and method of use” (AbbVie S.àr.l., priority 2015, dated 2017).
pEC50: −log10 of the molar value.

Key:
ΔF508-CFTR [1] = molecular target: T1, ΔF508-CFTR (Homo sapiens, UniProt P13569, DEL508-508); assay: CFTR cell surface levels using HRP-tagged ΔF508-CFTR expressing CFBE cells, in the presence of a co-corrector; format: cell-based
T1 construct: host or cells: CFBE41o-, doxycycline-inducible
Outline: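 Cells were seeded with 0.5 μg/mL doxycycline and held 68 h at 37 °C. Test compounds plus 3 μM co-corrector (final 0.1% DMSO) were then added for 20 h at 33 °C. Washed cells received HRP substrate, and luminescence was normalized between DMSO and 3 μM co-corrector controls.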

ΔF508-CFTR [2] = molecular target: T1, ΔF508-CFTR; assay: CFTR cell surface levels using HRP-tagged ΔF508-CFTR expressing CFBE cells, intrinsic corrector capacity; format: cell-based
Source text: Measuring CFTR Cell Surface Levels Using HRP-Tagged AF508-CFTR Expressing CFBE Cells
The HRP-tagged AF508-CFTR cell assay measures the expression of CFTR-ΔF508 at the plasma membrane. CFTR-ΔF508 has a folding defect leading to absence of protein at the plasma membrane. This assay is used to evaluate the capacity of compounds to increase the expression of CFTR-ΔF508 at the plasma membrane. The CFTR-ΔF508 is tagged with HRP (horse radish peroxidase enzyme) within the ECL4 (Extracellular loop 4) of CFTR (Phuan, P.-W. et al. Synergy-based small-molecule screen using a human lung epithelial cell line yields AF508-CFTR correctors that augment VX-809 maximal efficacy. Mol. Pharmacol. 86, 42-51 (2014)). When HRP-tagged AF508-CFTR is present at the plasma membrane, the HRP enzyme activity can be measured. The amount of CFTR-ΔF508 that can be rescued to the plasma membrane is correlated with the amount of functional enzyme that can be measured.
There are several ways to measure the capacity of compounds to rescue CFTR-ΔF508 to the plasma membrane; either compounds are evaluated on their own and the impact on plasma membrane levels is measured or compounds are evaluated in combination with a co-corrector, i.e. a compound that rescues CFTR-ΔF508 to the plasma membrane but rescue can be enhanced by addition of compounds due to a complementary mode of action.
Activity of Compounds for their Intrinsic Corrector Capacity:
For this purpose doxycycline-inducible AF508-CFTR-HRP expressing CFBE4lo-cells (obtained from Gergely Lukacs, McGill University) were maintained in MEM (Gibco; 31095) supplemented with 10% fetal bovine serum (Hyclone; SV30160.03) under puromycin (3 μg/mL) and G418 selection (0.2 mg/mL). For compound testing, cells were seeded at 4000 cells/well in white 384-well plates (Greiner; 781080) in 50 μL medium containing 0.5 μg/mL doxycycline and incubated for 68 hours at 37° C., 5% CO2. On day four, 10 μL test compounds diluted in PBS were added to the plates at a final DMSO concentration of 0.1%. All compound plates contained negative controls (DMSO) and positive controls (3 μM corrector, 3-[(2R,4R)-4-({[1-(2,2-difluoro-1,3-benzodioxol-5-yl)cyclopropyl]carbonyl}amino)-7-methoxy-3,4-dihydro-2H-chromen-2-yl]benzoic acid). Cell plates were incubated at 33° C., 5% CO2 for 20 hours. On day five, the cells were washed five times with phosphate-buffered saline, and HRP activity was assayed by the addition of 50 μL/well of HRP substrate (SuperSignal™ West Pico Chemiluminescent Substrate, Thermo Scientific; 34080). After incubation for 15 minutes in the dark, chemiluminescence was measured using a plate reader (EnVision®, Perkin Elmer). Raw data were normalized to percentage activity values using the equation: 100×(Sample−Negative control)/(Positive control−Negative Control).

[3] = HRP-tagged ΔF508-CFTR expressing CFBE cells, in the presence of 3 μM co-corrector
[4] = HRP-tagged ΔF508-CFTR expressing CFBE cells, in the presence of 3 μM co-corrector, read-out: EC50
[5] = HRP-tagged ΔF508-CFTR CFBE41o- cells, compounds alone (intrinsic corrector capacity), 20 hours at 33° C., positive control 3 μM corrector
[6] = HRP-tagged ΔF508-CFTR CFBE41o- cells, compounds alone (intrinsic corrector capacity), 20 hours at 33° C., read-out: EC50
[7] = HRP-tagged ΔF508-CFTR expressing CFBE cells, intrinsic corrector capacity (no co-corrector), 33° C., 20 hours
[8] = HRP-tagged ΔF508-CFTR expressing CFBE cells, intrinsic corrector capacity (no co-corrector), 33° C., 20 hours, read-out: EC50

T1 sequence (P13569 with tags, fused parts or gaps DEL508-508): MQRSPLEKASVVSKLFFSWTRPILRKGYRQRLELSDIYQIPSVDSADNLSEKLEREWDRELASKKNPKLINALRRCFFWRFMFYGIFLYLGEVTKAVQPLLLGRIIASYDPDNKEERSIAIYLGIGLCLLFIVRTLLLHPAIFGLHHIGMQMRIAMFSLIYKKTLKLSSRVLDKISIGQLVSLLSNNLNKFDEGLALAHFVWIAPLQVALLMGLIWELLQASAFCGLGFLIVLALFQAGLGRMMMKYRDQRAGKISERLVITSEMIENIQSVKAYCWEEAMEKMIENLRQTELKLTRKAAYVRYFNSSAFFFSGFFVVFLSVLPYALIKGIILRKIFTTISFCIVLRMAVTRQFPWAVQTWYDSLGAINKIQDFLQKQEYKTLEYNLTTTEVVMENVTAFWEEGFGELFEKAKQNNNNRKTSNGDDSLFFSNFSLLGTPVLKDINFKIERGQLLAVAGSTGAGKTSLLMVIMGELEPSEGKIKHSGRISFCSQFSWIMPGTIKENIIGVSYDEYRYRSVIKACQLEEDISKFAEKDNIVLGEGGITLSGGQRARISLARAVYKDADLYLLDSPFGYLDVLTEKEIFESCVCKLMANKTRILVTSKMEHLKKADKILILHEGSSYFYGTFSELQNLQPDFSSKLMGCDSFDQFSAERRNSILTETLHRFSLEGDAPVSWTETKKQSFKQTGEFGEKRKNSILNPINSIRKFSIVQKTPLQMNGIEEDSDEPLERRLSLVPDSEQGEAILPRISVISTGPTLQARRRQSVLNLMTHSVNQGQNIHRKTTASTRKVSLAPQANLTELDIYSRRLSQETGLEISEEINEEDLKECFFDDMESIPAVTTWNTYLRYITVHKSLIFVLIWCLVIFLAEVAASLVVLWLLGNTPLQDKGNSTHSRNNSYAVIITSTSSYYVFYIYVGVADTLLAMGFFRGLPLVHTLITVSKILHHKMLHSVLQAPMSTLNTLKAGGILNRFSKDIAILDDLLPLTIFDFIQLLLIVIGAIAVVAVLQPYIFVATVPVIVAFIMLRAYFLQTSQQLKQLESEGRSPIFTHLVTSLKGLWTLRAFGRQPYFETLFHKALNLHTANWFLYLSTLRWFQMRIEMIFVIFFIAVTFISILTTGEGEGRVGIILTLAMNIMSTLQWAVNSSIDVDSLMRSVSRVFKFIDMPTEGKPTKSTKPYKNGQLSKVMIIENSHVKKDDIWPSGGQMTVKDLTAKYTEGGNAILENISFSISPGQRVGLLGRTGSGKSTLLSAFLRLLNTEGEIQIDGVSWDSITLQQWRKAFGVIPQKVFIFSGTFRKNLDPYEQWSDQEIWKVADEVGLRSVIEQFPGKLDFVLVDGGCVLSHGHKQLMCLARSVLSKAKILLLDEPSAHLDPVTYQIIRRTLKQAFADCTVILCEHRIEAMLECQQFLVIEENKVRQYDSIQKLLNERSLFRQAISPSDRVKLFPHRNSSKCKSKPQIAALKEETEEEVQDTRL

SMILES	% Activation (ΔF508-CFTR [1]; [3])	pEC50 (ΔF508-CFTR [1]; [4])	% Activation (ΔF508-CFTR [2]; [5])	pEC50 (ΔF508-CFTR [2]; [6])	pEC50 (ΔF508-CFTR [1])	pEC50 (ΔF508-CFTR [2])	% Activation (ΔF508-CFTR [2]; [7])	pEC50 (ΔF508-CFTR [2]; [8])	% Activation (ΔF508-CFTR [2]; HRP-tagged ΔF508-CFTR CFBE cells, compound alone (intrinsic corrector capacity), 20 hours at 33° C.)	pEC50 (ΔF508-CFTR [2]; HRP-tagged ΔF508-CFTR CFBE cells, compound alone (intrinsic corrector capacity), 20 hours at 33° C., read-out: EC50)
CC(C)c1nn([C@@H]2CCC[C@@H](O)C2)c2nc(C(=O)O)cc(-c3ccc(N4CCOCC4)cc3)c12 (racemic) [compound 194, rac-1-[(1R,3R)-3-hydroxycyclohexyl]-4-[4-(morpholin-4-yl)phenyl]-3-(propan-2-yl)-1H-pyrazolo[3,4-b]pyridine-6-carboxylic acid]	233.9%	5.90	86.36%	5.77	–	–	–	–	–	–
CC(C)c1nn([C@@H]2CCC[C@H](O)C2)c2nc(C(=O)O)cc(-c3ccc(N4CCOCC4)cc3)c12 (racemic) [compound 195, rac-1-[(1R,3S)-3-hydroxycyclohexyl]-4-[4-(morpholin-4-yl)phenyl]-3-(propan-2-yl)-1H-pyrazolo[3,4-b]pyridine-6-carboxylic acid]	174.9%	5.48	27.46%	< 5.00	–	–	–	–	–	–
CC(C)(C)OC(=O)N1CC[C@@H]2CN(c3cc(C(=O)O)nc4c3c(C3CCC3)nn4-c3ccccc3)CC[C@@H]21 (racemic) [compound 549, rac-4-[(3aR,7aS)-1-(tert-butoxycarbonyl)octahydro-5H-pyrrolo[3,2-c]pyridin-5-yl]-3-cyclobutyl-1-phenyl-1H-pyrazolo[3,4-b]pyridine-6-carboxylic acid]	467.2%	–	–	–	7.21	6.68	302.2%	–	–	–
CC(=O)N1CC[C@@H]2CN(c3cc(C(=O)O)nc4c3c(C3CCC3)nn4-c3ccccc3)CC[C@@H]21 (single isomer, unassigned) [compound 587]	360.33%	5.62	–	–	–	–	149.5%	5.48	–	–
CC(=O)N1CC[C@H]2CN(c3cc(C(=O)O)nc4c3c(C3CCC3)nn4-c3ccccc3)CC[C@H]21 (single isomer, unassigned) [compound 588]	469.3%	5.62	–	–	–	–	232.6%	5.48	–	–
COc1ccc(-c2cc(C(=O)O)nc3c2c(C)nn3C2CCCCC2)cc1 [compound 2, 1-cyclohexyl-4-(4-methoxyphenyl)-3-methyl-1H-pyrazolo[3,4-b]pyridine-6-carboxylic acid]	198.6%	5.53	49.03%	5.58	–	–	–	–	–	–
Cc1cccc(-n2nc(C)c3c(-c4ccc(N5CCOCC5)cc4)cc(C(=O)O)nc32)c1 [compound 13, 3-methyl-1-(3-methylphenyl)-4-[4-(morpholin-4-yl)phenyl]-1H-pyrazolo[3,4-b]pyridine-6-carboxylic acid]	363.7%	6.14	159.23%	6.00	–	–	–	–	–	–
Cc1nn(-c2ccccc2)c2nc(C(=O)O)cc(-c3cnc(N4CCOCC4)nc3)c12 [compound 15, 3-methyl-4-[2-(morpholin-4-yl)pyrimidin-5-yl]-1-phenyl-1H-pyrazolo[3,4-b]pyridine-6-carboxylic acid]	282.5%	5.59	98.68%	5.57	–	–	–	–	–	–
Cc1cccc(-n2nc(C(C)C)c3c(-c4ccc(N5CCOCC5)cc4)cc(C(=O)O)nc32)c1 [compound 20, 1-(3-methylphenyl)-4-[4-(morpholin-4-yl)phenyl]-3-(propan-2-yl)-1H-pyrazolo[3,4-b]pyridine-6-carboxylic acid]	450.9%	6.43	199.98%	6.28	–	–	–	–	–	–
Cc1nn(-c2cccc(C(F)(F)F)c2)c2nc(C(=O)O)cc(-c3ccc(N4CCOCC4)cc3)c12 [compound 22, 3-methyl-4-[4-(morpholin-4-yl)phenyl]-1-[3-(trifluoromethyl)phenyl]-1H-pyrazolo[3,4-b]pyridine-6-carboxylic acid]	310.95%	6.00	131.28%	6.00	–	–	–	–	–	–
Cc1nn(-c2ccccc2)c2nc(C(=O)O)cc(-c3ccc(N4CCOCC4)cc3Cl)c12 [compound 26, 4-[2-chloro-4-(morpholin-4-yl)phenyl]-3-methyl-1-phenyl-1H-pyrazolo[3,4-b]pyridine-6-carboxylic acid]	258.4%	5.96	83.24%	5.90	–	–	–	–	–	–
Cc1nn(-c2cccc(N3CCOCC3)c2)c2nc(C(=O)O)cc(-c3ccc(N4CCOCC4)cc3)c12 [compound 32, 3-methyl-1-[3-(morpholin-4-yl)phenyl]-4-[4-(morpholin-4-yl)phenyl]-1H-pyrazolo[3,4-b]pyridine-6-carboxylic acid]	399.6%	5.86	176.7%	6.20	–	–	–	–	–	–
Cc1nn(-c2cccc(N(C)C)c2)c2nc(C(=O)O)cc(-c3ccc(N4CCOCC4)cc3)c12 [compound 36, 1-[3-(dimethylamino)phenyl]-3-methyl-4-[4-(morpholin-4-yl)phenyl]-1H-pyrazolo[3,4-b]pyridine-6-carboxylic acid]	364.5%	5.48	118.9%	5.70	–	–	–	–	–	–
CC(C)c1nn(-c2ccnc(Cl)c2)c2nc(C(=O)O)cc(-c3ccc(N4CCOCC4)cc3)c12 [compound 41, 1-(2-chloropyridin-4-yl)-4-[4-(morpholin-4-yl)phenyl]-3-(propan-2-yl)-1H-pyrazolo[3,4-b]pyridine-6-carboxylic acid]	301.2%	6.28	110.52%	6.02	–	–	–	–	–	–
CC(C)c1nn(-c2ccc(OC(F)(F)F)cc2)c2nc(C(=O)O)cc(-c3ccc(N4CCOCC4)cc3)c12 [compound 43, 4-[4-(morpholin-4-yl)phenyl]-3-(propan-2-yl)-1-[4-(trifluoromethoxy)phenyl]-1H-pyrazolo[3,4-b]pyridine-6-carboxylic acid]	360.8%	6.43	187.4%	6.39	–	–	–	–	–	–
CC(C)(C)OC(=O)N1CC(c2nn(-c3ccccc3)c3nc(C(=O)O)cc(-c4ccc(N5CCOCC5)cc4)c23)C1 [compound 47, 3-[1-(tert-butoxycarbonyl)azetidin-3-yl]-4-[4-(morpholin-4-yl)phenyl]-1-phenyl-1H-pyrazolo[3,4-b]pyridine-6-carboxylic acid]	390.5%	6.25	183.2%	6.22	–	–	–	–	–	–
CC(C)c1nn(C2CCCCC2)c2nc(C(=O)O)cc(-c3ccc(N4CCOCC4)cc3)c12 [compound 54, 1-cyclohexyl-4-[4-(morpholin-4-yl)phenyl]-3-(propan-2-yl)-1H-pyrazolo[3,4-b]pyridine-6-carboxylic acid]	392.6%	6.42	167.9%	6.12	–	–	–	–	–	–
CC(C)COC(=O)N1CCN(c2cc(C(=O)O)nc3c2c(C2CCC2)nn3-c2ccc(F)cc2)CC1 [compound 930, 3-cyclobutyl-1-(4-fluorophenyl)-4-{4-[(2-methylpropoxy)carbonyl]piperazin-1-yl}-1H-pyrazolo[3,4-b]pyridine-6-carboxylic acid]	–	–	–	–	–	–	–	–	434.3%	6.62
